From ChEMBL document CHEMBL5236582, “Trehalose diesters containing a polar functional group-modified lipid moiety: Synthesis and evaluation of Mincle-mediated signaling activity” (Bioorg Med Chem, 2022)
Active and inactive are the calls of the source. The calls are words filed in the database; no cut-off is given here.

Experiments:
[1] = biological target: T1, C-type lectin domain family 4 member E (Homo sapiens) (UniProt Q9ULY5); test: Induction of human Mincle expressed in NFAT-GFP reporter cells assessed as induction of mincle-mediated NFAT signaling activity by measuring stimulation of GFP reporter activity at 0.001 to 0.1 nmol/well incubated for 18 hrs by flow cytometry; assay type: cell-based; settings: filed as agonist, dose 0.001-0.1 nmol
T1 sequence (whole entry): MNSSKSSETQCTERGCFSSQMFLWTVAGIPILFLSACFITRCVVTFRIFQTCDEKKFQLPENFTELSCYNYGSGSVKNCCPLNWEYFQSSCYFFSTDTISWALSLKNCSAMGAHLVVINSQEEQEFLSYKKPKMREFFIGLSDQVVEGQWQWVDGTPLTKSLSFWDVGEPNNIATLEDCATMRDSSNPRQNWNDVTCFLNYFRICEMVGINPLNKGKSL

[2] = biological target: T2, C-type lectin domain family 4 member E (Mus musculus) (UniProt Q9R0Q8); test: Induction of mouse Mincle expressed in NFAT-GFP reporter cells assessed as induction of mincle-mediated NFAT signaling activity by measuring stimulation of GFP reporter activity at 0.001 to 0.1 nmol/well incubated for 18 hrs by flow cytometry; assay type: cell-based; settings: filed as agonist, dose 0.001-0.1 nmol
T2 sequence (whole entry): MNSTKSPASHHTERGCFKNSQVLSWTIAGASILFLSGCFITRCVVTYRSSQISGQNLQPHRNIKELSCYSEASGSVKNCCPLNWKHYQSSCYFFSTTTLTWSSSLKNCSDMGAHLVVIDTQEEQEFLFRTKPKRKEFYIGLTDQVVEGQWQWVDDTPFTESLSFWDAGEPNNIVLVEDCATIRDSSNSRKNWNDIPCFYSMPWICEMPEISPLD

[3] = biological target: T2, C-type lectin domain family 4 member E (Mus musculus); test: Induction of mouse Mincle expressed in NFAT-GFP reporter cells assessed as induction of mincle-mediated NFAT signaling activity by measuring stimulation of GFP reporter activity at 0.1 nmol/well incubated for 18 hrs by flow cytometry; assay type: cell-based; settings: filed as agonist
[4] = biological target: T1, C-type lectin domain family 4 member E (Homo sapiens); test: Induction of human Mincle expressed in NFAT-GFP reporter cells assessed as induction of mincle-mediated NFAT signaling activity by measuring stimulation of GFP reporter activity at 0.1 nmol/well incubated for 18 hrs by flow cytometry; assay type: cell-based; settings: filed as agonist
[5] = Solubility of the compound in 1 mM DMSO; assay type: physicochemical
[6] = Solubility of the compound in 8 mM DMSO; assay type: physicochemical; settings: 8000 µM

Row | SMILES | Activity [1] | Activity [2] | Activity [3] | Activity [4] | solubility [5] | solubility [6]
1 | CCCCCCCCCCCCC(N)CCCCCCCCC(=O)OC[C@@H]1O[C@@H](O[C@H]2O[C@H](COC(=O)CCCCCCCCC(N)CCCCCCCCCCCC)[C@@H](O)[C@H](O)[C@H]2O)[C@@H](O)[C@H](O)[C@H]1O (some centres undefined) | Active | Active | – | – | – | –
2 | CCCCCCCCCCCCC(=O)CCCCCCCCC(=O)OC[C@@H]1O[C@@H](O[C@H]2O[C@H](COC(=O)CCCCCCCCC(=O)CCCCCCCCCCCC)[C@@H](O)[C@H](O)[C@H]2O)[C@@H](O)[C@H](O)[C@H]1O | Active | Active | – | – | – | –
3 | CCCCCCC(=O)CCCCCCCCCCC(=O)OC[C@@H]1O[C@@H](O[C@H]2O[C@H](COC(=O)CCCCCCCCCCC(=O)CCCCCC)[C@@H](O)[C@H](O)[C@H]2O)[C@@H](O)[C@H](O)[C@H]1O | Active | Active | – | – | – | –
4 | CCCCCCCCCCCCCCCCCCCCCCCC(C(=O)OC[C@@H]1O[C@@H](O[C@H]2O[C@H](COC(=O)C(CCCCCCCCCCCCCCCCCCCCCCC)C(O)CCCCCCCCCCCCCCCCCC3CC3CCCCCCCCCCCCCCC3CC3CCCCCCCCCCCCCCCCCC)[C@@H](O)[C@H](O)[C@H]2O)[C@@H](O)[C@H](O)[C@H]1O)C(O)CCCCCCCCCCCCCCCCCC1CC1CCCCCCCCCCCCCCC1CC1CCCCCCCCCCCCCCCCCC (some centres undefined) | – | – | Active | Active | – | –
5 | CCCCCCCCC(=O)CCCCCCCCC(=O)OC[C@@H]1O[C@@H](O[C@H]2O[C@H](COC(=O)CCCCCCCCC(=O)CCCCCCCC)[C@@H](O)[C@H](O)[C@H]2O)[C@@H](O)[C@H](O)[C@H]1O | Active | Active | – | – | – | –
6 | CCCCCCCCCCCCCCCCCC(=O)OC[C@@H]1O[C@@H](O[C@H]2O[C@H](COC(=O)CCCCCCCCCCCCCCCCC)[C@@H](O)[C@H](O)[C@H]2O)[C@@H](O)[C@H](O)[C@H]1O | – | – | Active | Active | – | –

Further lines, results first:

Row | Activity [1] | Activity [2] | Activity [3] | Activity [4] | solubility [5] | solubility [6] | SMILES
7 | Active | Active | – | – | – | – | CCCCCCCCCCC(O)CCCCCCC(=O)OC[C@@H]1O[C@@H](O[C@H]2O[C@H](COC(=O)CCCCCCC(O)CCCCCCCCCC)[C@@H](O)[C@H](O)[C@H]2O)[C@@H](O)[C@H](O)[C@H]1O (some centres undefined)
8 | Active | Active | – | – | – | – | CCCCCCC(N)CCCCCCCCCCC(=O)OC[C@@H]1O[C@@H](O[C@H]2O[C@H](COC(=O)CCCCCCCCCCC(N)CCCCCC)[C@@H](O)[C@H](O)[C@H]2O)[C@@H](O)[C@H](O)[C@H]1O (some centres undefined)
9 | Active | Active | – | – | Soluble | – | CCCCCCCCCCCCC(O)CCCCCCCCC(=O)OC[C@@H]1O[C@@H](O[C@H]2O[C@H](COC(=O)CCCCCCCCC(O)CCCCCCCCCCCC)[C@@H](O)[C@H](O)[C@H]2O)[C@@H](O)[C@H](O)[C@H]1O (some centres undefined)
10 | Active | Active | – | – | – | – | CCCCCCC(O)CCCCCCCCCCC(=O)OC[C@@H]1O[C@@H](O[C@H]2O[C@H](COC(=O)CCCCCCCCCCC(O)CCCCCC)[C@@H](O)[C@H](O)[C@H]2O)[C@@H](O)[C@H](O)[C@H]1O (some centres undefined)
11 | – | – | Active | Active | – | Soluble | CCCCCCCCC(O)CCCCCCCCC(=O)OC[C@@H]1O[C@@H](O[C@H]2O[C@H](COC(=O)CCCCCCCCC(O)CCCCCCCC)[C@@H](O)[C@H](O)[C@H]2O)[C@@H](O)[C@H](O)[C@H]1O (some centres undefined)
12 | Active | Active | – | – | Soluble | – | CCCCCCCCC(N)CCCCCCCCC(=O)OC[C@@H]1O[C@@H](O[C@H]2O[C@H](COC(=O)CCCCCCCCC(N)CCCCCCCC)[C@@H](O)[C@H](O)[C@H]2O)[C@@H](O)[C@H](O)[C@H]1O (some centres undefined)
13 | Active | Active | – | – | – | – | CCCCCCCC(O)CCCCCCCCCC(=O)OC[C@@H]1O[C@@H](O[C@H]2O[C@H](COC(=O)CCCCCCCCCC(O)CCCCCCC)[C@@H](O)[C@H](O)[C@H]2O)[C@@H](O)[C@H](O)[C@H]1O (some centres undefined)
